Some test systems named below: HOP-62 NSCLC; CCRF-CEM leukemia; SNB-75 CNS; COLO 205 colon; ACHN renal; 786-0 renal; UACC-257 melanoma; U251 CNS; HCT-15 colon; NCI-H522 lung.
Holding throughout (test): NCI-60 cell line screen, 48 h

Where “and” joins values, the source holds several entries; their conditions need not be identical. Identical values can stand only once.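 Where inhibition never reached the appropriate level, the endpoint shown equals the highest concentration tested. Otherwise, values were interpolated linearly from a five-concentration, 48-hour dose response in 96-well plates. GI50 = concentration required for 50% inhibition of growth. The concentration for full growth arrest is given as TGI.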

For the compound `O=C(/C(=C\C(=O)c1cccs1)c1ccsc1)c1ccc(Br)cc1`, the TGI in the assay on HOP-62 NSCLC, with CCRF-CEM leukemia, in the assay on SNB-75 CNS, in the assay on COLO 205 colon, with ACHN renal and with 786-0 renal was greater than 100 µM each time. Besides, the TGI with UACC-257 melanoma, in the assay with U251 CNS and in the assay with HCT-15 colon was greater than 100 µM throughout.
Consider `C=CC1[C@H]2COC(C)(C)O[C@@H]2CC(=O)C1(C)C` (stereo partly drawn), for which the TGI with HOP-62 NSCLC, with SNB-75 CNS, in the assay with COLO 205 colon, in the assay on ACHN renal, with 786-0 renal and in the assay on UACC-257 melanoma was greater than 100 µM in each case. In addition, the TGI in the assay with NCI-H522 lung and with U251 CNS was greater than 100 µM throughout.
As for `CCOC(=O)/C(O)=C/c1cc(OC)cc(=O)o1`, the TGI in the assay on CCRF-CEM leukemia, in the assay with SNB-75 CNS, with COLO 205 colon, with ACHN renal, in the assay with 786-0 renal and in the assay on UACC-257 melanoma was greater than 100 µM each time. Also, the TGI in the assay on NCI-H522 lung, in the assay on U251 CNS and with HCT-15 colon was greater than 100 µM in each case.
As for `Cn1nc(-c2ccccc2)c(C(=O)/C=C/c2ccc(F)cc2)c(N2CCCCC2)c1=O`, the TGI was determined as 6.46 µM with CCRF-CEM leukemia; 14.1 µM in the assay on COLO 205 colon; 27.7 µM in the assay on ACHN renal; 18 µM in the assay with 786-0 renal; 28.7 µM in the assay with NCI-H522 lung; 27.7 µM with U251 CNS. The TGI in the assay with HCT-15 colon is greater than 100 µM.
Regarding `CC12N=NN(c3ccc([N+](=O)[O-])cc3)C1(O)c1ccccc1C2=O` (stereo not drawn), the TGI with HOP-62 NSCLC, in the assay on COLO 205 colon, in the assay on ACHN renal, in the assay with 786-0 renal, in the assay with UACC-257 melanoma and in the assay on NCI-H522 lung was greater than 100 µM throughout. The TGI with U251 CNS and with HCT-15 colon was greater than 100 µM throughout.
As to `CO/C(=N\N=C\c1cccc(Cl)c1)c1ccncc1`, the TGI in the assay with HOP-62 NSCLC, with CCRF-CEM leukemia, in the assay on COLO 205 colon, in the assay with ACHN renal, with 786-0 renal and in the assay with UACC-257 melanoma was greater than 10 µM throughout. The TGI in the assay with NCI-H522 lung, in the assay with U251 CNS and in the assay with HCT-15 colon was greater than 10 µM in each case.
Regarding `COc1cc2c(c(OC)c1OC)-c1ccc(N)c(=O)cc1[C@@H](NC(C)=O)CC2`, the GI50 in the assay on HOP-62 NSCLC is 0.0426 µM; in the assay with CCRF-CEM leukemia it was less than 0.0147 µM; in the assay with COLO 205 colon, 0.012 µM; with ACHN renal, 0.152 µM; in the assay on 786-0 renal it was 0.108 µM; with UACC-257 melanoma, greater than 100 µM. For the same compound, the GI50 in the assay on NCI-H522 lung is less than 0.0114 µM; with U251 CNS, 0.0302 µM; in the assay on HCT-15 colon it was 0.358 µM. The TGI with HOP-62 NSCLC is greater than 100 µM; in the assay on CCRF-CEM leukemia it was greater than 100 µM; in the assay with COLO 205 colon, 0.0386 µM; in the assay on ACHN renal, greater than 100 µM; in the assay with 786-0 renal, greater than 100 µM; in the assay on UACC-257 melanoma, greater than 100 µM. Further, the TGI in the assay with NCI-H522 lung was less than 0.021 µM; in the assay with U251 CNS, greater than 100 µM; in the assay with HCT-15 colon, greater than 100 µM.
In the case of `CC[C@@]1(O)C[C@H](OC2CC(N(C)C)C(OC3CC(O)C(OC4CCC(=O)C(C)O4)C(C)O3)C(C)O2)c2c(cc3c(c2O)C(=O)c2c(O)cccc2C3=O)[C@H]1C(=O)OC` (stereo partly drawn), the TGI with HOP-62 NSCLC was 0.139 µM and 0.504 µM; in the assay on CCRF-CEM leukemia, 0.7 µM and 2.69 µM; in the assay with ACHN renal it was 0.579 µM; in the assay on 786-0 renal, 0.25 µM and 0.476 µM; with UACC-257 melanoma, 0.179 µM and 0.26 µM; with U251 CNS, 2.11 µM and 2.49 µM. Also, the TGI in the assay with HCT-15 colon was 0.436 µM and 0.826 µM. Besides, the GI50 with CCRF-CEM leukemia is 0.00779 µM and 0.0022 µM.
Turning to `O=C(O)C1C2CCC(O2)C1C(=O)N1CCCCC1` (stereo not drawn), the TGI with HOP-62 NSCLC came out at 35.8 µM; in the assay with SNB-75 CNS it was 17.2 µM; in the assay on COLO 205 colon it was 3.87 µM; with ACHN renal, 17 µM; in the assay on 786-0 renal, 15 µM; in the assay on UACC-257 melanoma, 32.4 µM. In addition, the TGI was determined as 17.4 µM in the assay with NCI-H522 lung, 17 µM with U251 CNS and 26.1 µM in the assay with HCT-15 colon.
For `CN(C)c1ccc([O-])cc1.CN(C)c1ccc([O-])cc1.CN(C)c1ccc([O-])cc1.CN(C)c1ccc([O-])cc1.[Ti+4]`, the GI50 was greater than 100 µM in the assay on HOP-62 NSCLC; 43.7 µM with CCRF-CEM leukemia; 27.2 µM in the assay on SNB-75 CNS; 85.3 µM in the assay with COLO 205 colon; 56.3 µM in the assay on ACHN renal; greater than 100 µM in the assay with 786-0 renal. For the same compound, the values for the GI50 with UACC-257 melanoma, in the assay with NCI-H522 lung and in the assay on HCT-15 colon were greater than 100 µM, 33.2 µM and greater than 100 µM, respectively. The TGI in the assay with HOP-62 NSCLC, in the assay with CCRF-CEM leukemia, in the assay on SNB-75 CNS, in the assay on COLO 205 colon, in the assay on ACHN renal and in the assay on 786-0 renal was greater than 100 µM throughout. In addition, the TGI is greater than 100 µM in the assay on UACC-257 melanoma, 98.2 µM with NCI-H522 lung and greater than 100 µM with HCT-15 colon.
Consider `COc1ccc2c(c1)C(=O)c1c-2n(CCCN=[N+]=[N-])c(=O)c2cc(N(C)C)ccc12`, for which the GI50 in the assay on HOP-62 NSCLC is 10.3 µM; in the assay with SNB-75 CNS it was 7.21 µM; with COLO 205 colon, greater than 100 µM; with ACHN renal, greater than 100 µM; in the assay on 786-0 renal, 29.5 µM; in the assay on UACC-257 melanoma, greater than 100 µM. Further, the figures for the GI50 in the assay with NCI-H522 lung, in the assay on U251 CNS and with HCT-15 colon were 11.2 µM, 19.5 µM and greater than 100 µM, respectively. Also, the TGI in the assay with HOP-62 NSCLC was greater than 100 µM; in the assay on SNB-75 CNS it was 56.2 µM; in the assay with COLO 205 colon it was greater than 100 µM; in the assay with ACHN renal, greater than 100 µM; in the assay on 786-0 renal it was greater than 100 µM; with UACC-257 melanoma, greater than 100 µM. Also, the figures for the TGI in the assay with NCI-H522 lung, with U251 CNS and with HCT-15 colon were 92.4 µM, greater than 100 µM and greater than 100 µM, respectively.
`O=C(Nc1cccc([N+](=O)[O-])c1)C(=O)C(C(=O)c1ccccc1-c1ccccc1)C1OC(=O)c2ccccc21` (stereo not drawn): the TGI with HOP-62 NSCLC is 33.9 µM; with CCRF-CEM leukemia, 99 µM; in the assay with SNB-75 CNS, 64.8 µM; with COLO 205 colon it was 38.1 µM; in the assay with ACHN renal, greater than 100 µM; with 786-0 renal, 38.9 µM. The TGI in the assay on UACC-257 melanoma came out at 93.4 µM; in the assay on NCI-H522 lung, 26.2 µM; in the assay on U251 CNS it was 27.7 µM.
As for `O=C1C=CC=CC2CC=C[C@@H](O)C12` (stereo partly drawn), the TGI was greater than 100 µM with HOP-62 NSCLC; greater than 100 µM in the assay with CCRF-CEM leukemia; 39.5 µM in the assay with COLO 205 colon; 31.8 µM in the assay with ACHN renal; 33.8 µM with 786-0 renal; 29.7 µM in the assay with UACC-257 melanoma. The TGI in the assay on NCI-H522 lung amounted to 26.8 µM; with HCT-15 colon, 35.2 µM.

The record behind these values is PubChem BioAssay (NCI).
